{"source": "patent EP2166560A1", "about": "“Maldi matrices” (Max-Planck-Gesellschaft zur Förderung der Wissenschaften …, priority 2008, dated 2010)", "origin": "cited, not measured here", "settings": "representative medium strong acid"}
{"smiles": "CCCCCCCCCCCCCCCCCC(=O)O", "note": "[stearic acid]", "values": [{"measurement": "pK", "result": 10.15}]}
